In publication PMC12584665, “In vitro and in vivo efficacy of vancomycin against Elizabethkingia species and the impact of increased vancomycin MICs” (Microbiology Spectrum, 2025):
Converted amounts (≈) assume the structure as drawn. Read-outs that look alike come from different tables or passages of the source.

What was measured:
E. bruuniana = assay: Broth microdilution MIC of laboratory-induced mutants; assay type: cell-based
Protocol: (§1) E. anophelis and non-anophelis species with baseline vancomycin MICs of 16–32 mg/L (Table 2) were well characterized in our previous study ([7]) and were included in the induction study. The induction of mutants with elevated vancomycin MICs was modified from a previous study ([18]). Briefly, 10^9 cfu of wild-type E. anophelis (2008S01-229) was plated on brain heart infusion agar (Becton Dickinson, Franklin Lakes, NJ, USA) with twofold multiples of vancomycin (32 –256 mg/L). Isolates from viable colonies were subjected to broth microdilution. Genomic comparison between the parental strain (2008S01-229) and elevated-MIC mutants was performed to identify the mutated gene conferring increased vancomycin MIC. To determine whether similar genetic changes occurred in other Elizabethkingia species, non-anophelis isolates were subjected to the same induction protocol. The corresponding target genes were then analyzed by Sanger sequencing to assess the presence of analogous mutations. The target gene related to elevated vancomycin MICs was also validated via scarless gene editing.

E. meningoseptica = assay: as above; assay type: cell-based; settings: Elizabethkingia meningoseptica
Protocol: as §1

E. ursingii = assay: as above; assay type: cell-based
Protocol: as §1

E. miricola = assay: as above; assay type: cell-based
Protocol: as §1

[1] = system: Elizabethkingia anophelis; assay: Disc diffusion (DD) zone diameter; assay type: cell-based
Description: (§2) Eighteen E. anophelis clinical isolates from the nationwide surveillance program (Taiwan Surveillance of Antimicrobial Resistance) were well characterized in our previous study ([7]) and were selected for susceptibility testing and minimum bactericidal concentration (MBC) assays. Among them, five isolates with different clonality (underlined strains in Fig. S1) were selected for the time-kill assays and in vivo experiments.
(§3) Broth microdilution, disc diffusion, Etest, and agar dilution assays were conducted following CLSI guidelines to determine vancomycin MICs ([8]). […] Criteria for Staphylococcus spp. were not adopted due to the lack of a zone diameter breakpoint. MBCs were determined following CLSI guidelines ([8]).

[2] = system: Elizabethkingia anophelis; assay: Etest MIC; assay type: cell-based
Description: as §2, §3

[3] = system: Elizabethkingia anophelis; assay: Minimum bactericidal concentration (MBC) test; assay type: cell-based; settings: for MBC: Elizabethkingia anophelis
Description: as §2, §3

[4] = system: Elizabethkingia anophelis; assay: Broth microdilution (BMD) MIC; assay type: cell-based; settings: for MIC: Elizabethkingia anophelis; for susceptibility category: all susceptibility tests, CLSI criteria for Enterococcus spp. (susceptible MIC <= 4 mg/L, zone >= 17 mm)
Description: as §2, §3

[5] = system: Elizabethkingia anophelis; assay: Murine neutropenic thigh infection model; assay type: in vivo, C57BL/6J mice
Protocol: In vivo efficacy was assessed by wax moth (Galleria mellonella), murine pneumonia, and murine thigh infection models following the protocols of our previous study ([2]). The Animal Ethics Committee of Taiwan’s National Health Research Institutes approved the murine pneumonia and thigh infection models.
For the thigh infection model, seven-week-old C57BL/6J mice were rendered neutropenic by intraperitoneal injections of cyclophosphamide (Cytoxan; Bristol-Myers Squibb, Princeton, NJ, USA) 4 days (150 mg/kg) and 1 day (100 mg/kg) before bacterial inoculation. A 30 µL aliquot containing the E. anophelis (10^7 cfu) was injected into each of the two rear thighs. Vancomycin (25 mg/kg or 100 mg/kg, subcutaneous) or teicoplanin (50 mg/kg, intraperitoneal) was administered 2 h and 14 h after inoculation. Mice were sacrificed 24 h post-inoculation, and homogenized thigh tissue was plated in serial 10-fold dilutions on brain-heart infusion agar to determine bacterial counts. Each mouse, not each thigh, was considered an individual data point.

[6] = E. anophelis clinical isolate 2008N05-106
[7] = E. anophelis clinical isolate 2008S01-229
[8] = E. anophelis clinical isolate 2014C06-157
[9] = E. anophelis clinical isolate 2016N17-576
[10] = E. anophelis clinical isolate 2018C04-213
[11] = E. anophelis clinical isolate 2018C04-224
[12] = E. anophelis clinical isolate 2018C07-210
[13] = E. anophelis clinical isolate 2018C07-234
[14] = E. anophelis clinical isolate 2018C08-127
[15] = E. anophelis clinical isolate 2018E03-151
[16] = E. anophelis clinical isolate 2018E04-135
[17] = E. anophelis clinical isolate 2018N16-057
[18] = E. anophelis clinical isolate 2018N17-036
[19] = E. anophelis clinical isolate 2018N17-073
[20] = E. anophelis clinical isolate 2018N17-153
[21] = E. anophelis clinical isolate 2018N21-226
[22] = E. anophelis clinical isolate 2018S09-023
[23] = E. anophelis clinical isolate 2018S11-172

`CN[C@H](CC(C)C)C(=O)N[C@H]1C(=O)N[C@@H](CC(N)=O)C(=O)N[C@H]2C(=O)N[C@H]3C(=O)N[C@H](C(=O)N[C@H](C(=O)O)c4cc(O)cc(O)c4-c4cc3ccc4O)[C@H](O)c3ccc(c(Cl)c3)Oc3cc2cc(c3O[C@@H]2O[C@H](CO)[C@@H](O)[C@H](O)[C@H]2O[C@H]2C[C@](C)(N)[C@H](O)[C@H](C)O2)Oc2ccc(cc2Cl)[C@H]1O` [Vancomycin] showed an MIC (E. bruuniana) of 256 µg/mL, an MIC (E. bruuniana; wild-type E. bruuniana parent strain, read-out: Parent strain MIC) of 16 µg/mL and an MIC (E. meningoseptica; induced E. meningoseptica mutants, pbp4 827DelA, Frameshift, 2 isolates, one value each) of 64 µg/mL. It also gave an MIC (E. meningoseptica; wild-type E. meningoseptica parent strain, read-out: Parent strain MIC) of 16 µg/mL, an MIC (E. ursingii) of 256 µg/mL and an MIC (E. ursingii; wild-type E. ursingii parent strain, read-out: Parent strain MIC) of 32 µg/mL. It also gave an MIC (E. ursingii; {}) of 256 µg/mL, an MIC (E. miricola) of 512 µg/mL and an MIC (E. miricola; wild-type E. miricola parent strain, read-out: Parent strain MIC) of 32 µg/mL. The “zone diameters, all isolates” value ([1]; 18 E. anophelis isolates, disc diffusion, susceptibility breakpoint >= 17 mm (Enterococcus spp.)) was under 17 mm, the DD zone diameter [1, 6] was 15 mm and the DD zone diameter [1, 7] was 15 mm. It also gave a DD zone diameter [1, 8] of 15 mm, a DD zone diameter [1, 9] of 15 mm and a DD zone diameter [1, 10] of 15 mm. It also gave a DD zone diameter [1, 11] of 15 mm, a DD zone diameter [1, 12] of 14 mm and a DD zone diameter [1, 13] of 15 mm. It also gave a DD zone diameter [1, 14] of 14 mm, a DD zone diameter [1, 15] of 14 mm and a DD zone diameter [1, 16] of 14 mm. The DD zone diameter [1, 17] was 15 mm, the DD zone diameter [1, 18] was 15 mm and the DD zone diameter [1, 19] was 14 mm. It also gave a DD zone diameter [1, 20] of 14 mm, a DD zone diameter [1, 21] of 13 mm and a DD zone diameter [1, 22] of 15 mm. It also gave a DD zone diameter [1, 23] of 13 mm, an MIC [2, 6] of 24 µg/mL (≈ 16.6 µM) and an MIC [2, 7] of 16 µg/mL (≈ 11 µM). It also gave an MIC [2, 8] of 16 µg/mL (≈ 11 µM), an MIC [2, 9] of 16 µg/mL (≈ 11 µM) and an MIC [2, 10] of 16 µg/mL (≈ 11 µM). It also gave an MIC [2, 11] of 16 µg/mL (≈ 11 µM), an MIC [2, 12] of 16 µg/mL (≈ 11 µM) and an MIC [2, 13] of 16 µg/mL (≈ 11 µM). It also gave an MIC [2, 14] of 16 µg/mL (≈ 11 µM), an MIC [2, 15] of 16 µg/mL (≈ 11 µM) and an MIC [2, 16] of 16 µg/mL (≈ 11 µM). The MIC [2, 17] was 16 µg/mL (≈ 11 µM), the MIC [2, 18] was 16 µg/mL (≈ 11 µM) and the MIC [2, 19] was 16 µg/mL (≈ 11 µM). For the same compound, the MIC [2, 20] was 16 µg/mL (≈ 11 µM), the MIC [2, 21] was 24 µg/mL (≈ 16.6 µM) and the MIC [2, 22] was 16 µg/mL (≈ 11 µM). For the same compound, the MIC [2, 23] was 32 µg/mL (≈ 22.1 µM), the “MBCs relative to MICs” value ([3]; 18 E. anophelis isolates) was “within a twofold range of MICs” and the MBC [3, 6] was 16 µg/mL (≈ 11 µM). The MBC [3, 7] was 32 µg/mL (≈ 22.1 µM), the MBC [3, 8] was 16 µg/mL (≈ 11 µM) and the MBC [3, 9] was 32 µg/mL (≈ 22.1 µM). The MBC [3, 10] was 16 µg/mL (≈ 11 µM), the MBC [3, 11] was 16 µg/mL (≈ 11 µM) and the MBC [3, 12] was 16 µg/mL (≈ 11 µM). For the same compound, the MBC [3, 13] was 16 µg/mL (≈ 11 µM), the MBC [3, 14] was 16 µg/mL (≈ 11 µM) and the MBC [3, 15] was 16 µg/mL (≈ 11 µM). It also gave an MBC [3, 16] of 16 µg/mL (≈ 11 µM), an MBC [3, 17] of 16 µg/mL (≈ 11 µM) and an MBC [3, 18] of 32 µg/mL (≈ 22.1 µM). For the same compound, the MBC [3, 19] was 16 µg/mL (≈ 11 µM), the MBC [3, 20] was 16 µg/mL (≈ 11 µM) and the MBC [3, 21] was 16 µg/mL (≈ 11 µM). For the same compound, the MBC [3, 22] was 16 µg/mL (≈ 11 µM), the MBC [3, 23] was 32 µg/mL (≈ 22.1 µM) and the “MICs, range over isolates” value ([4]; 18 E. anophelis isolates, broth microdilution, concordant with agar dilution and Etest) was 16 to 32 mg/L. For the same compound, the MIC ([4]; read-out: MIC, BMD, E. anophelis clinical isolate 2008N05-106) was 32 µg/mL (≈ 22.1 µM), the MIC ([4]; read-out: MIC, BMD, E. anophelis clinical isolate 2008S01-229) was 32 µg/mL (≈ 22.1 µM) and the MIC ([4]; read-out: MIC, BMD, E. anophelis clinical isolate 2014C06-157) was 32 µg/mL (≈ 22.1 µM). For the same compound, the MIC ([4]; read-out: MIC, BMD, E. anophelis clinical isolate 2016N17-576) was 32 µg/mL (≈ 22.1 µM), the MIC ([4]; read-out: MIC, BMD, E. anophelis clinical isolate 2018C04-213) was 16 µg/mL (≈ 11 µM) and the MIC ([4]; read-out: MIC, BMD, E. anophelis clinical isolate 2018C04-224) was 16 µg/mL (≈ 11 µM). For the same compound, the MIC ([4]; read-out: MIC, BMD, E. anophelis clinical isolate 2018C07-210) was 16 µg/mL (≈ 11 µM), the MIC ([4]; read-out: MIC, BMD, E. anophelis clinical isolate 2018C07-234) was 16 µg/mL (≈ 11 µM) and the MIC ([4]; read-out: MIC, BMD, E. anophelis clinical isolate 2018C08-127) was 16 µg/mL (≈ 11 µM). The MIC ([4]; read-out: MIC, BMD, E. anophelis clinical isolate 2018E03-151) was 16 µg/mL (≈ 11 µM), the MIC ([4]; read-out: MIC, BMD, E. anophelis clinical isolate 2018E04-135) was 16 µg/mL (≈ 11 µM) and the MIC ([4]; read-out: MIC, BMD, E. anophelis clinical isolate 2018N16-057) was 16 µg/mL (≈ 11 µM). It also gave an MIC ([4]; read-out: MIC, BMD, E. anophelis clinical isolate 2018N17-036) of 32 µg/mL (≈ 22.1 µM), an MIC ([4]; read-out: MIC, BMD, E. anophelis clinical isolate 2018N17-073) of 16 µg/mL (≈ 11 µM) and an MIC ([4]; read-out: MIC, BMD, E. anophelis clinical isolate 2018N17-153) of 16 µg/mL (≈ 11 µM). The MIC ([4]; read-out: MIC, BMD, E. anophelis clinical isolate 2018N21-226) was 16 µg/mL (≈ 11 µM), the MIC ([4]; read-out: MIC, BMD, E. anophelis clinical isolate 2018S09-023) was 16 µg/mL (≈ 11 µM) and the MIC ([4]; read-out: MIC, BMD, E. anophelis clinical isolate 2018S11-172) was 32 µg/mL (≈ 22.1 µM). The MIC ([4]; read-out: MICs as summarised in the discussion, E. anophelis, isolates not specified) was 32 µg/mL (≈ 22.1 µM), the susceptibility category [4] was “non-susceptible” and the susceptibility category ([4]; listed as vancomycin) was “resistant”. For the same compound, the “bacterial loads in thigh” value ([5]; 25 mg/kg subcutaneous 2 h and 14 h after inoculation, neutropenic mice, 24 h, all clinical strains, 4 mice per group) was “modestly reduced the bacterial loads”, the “bacterial load in thigh” value ([5]; 100 mg/kg subcutaneous 2 h and 14 h after inoculation, neutropenic mice, 24 h, compared with 25 mg/kg) was “greater reduction of bacterial load” and the “reduction of bacterial load” value ([5]; 100 mg/kg twice daily, infection by 2008S01-229-VAN-R compared to 2008S01-229) was “hampered”.
